Source: publication PMC8658016, “Identification of New Compounds with Anticonvulsant and Antinociceptive Properties in a Group of 3-substituted (2,5-dioxo-pyrrolidin-1-yl)(phenyl)-Acetamides” (International Journal of Molecular Sciences, 2021)
Where two headings read alike, the source gives them in different places.

Columns and labels:
[1] = in vivo; conditions: male, CD-1, mouse, ip
[2] = system: mice; experiment: Psychomotor 6 Hz (32 mA) seizure test; assay type: in vivo, mouse; conditions: mice i.p.; for ED50: Mus musculus, ip, 95% confidence interval in parentheses; for 6 Hz (32 mA) screening: number of mice protected / number of mice tested / protection in the 6 Hz (32 mA) test: 100 mg/kg, 0.5 h
[3] = system: mice; experiment: Subcutaneous pentylenetetrazole (scPTZ) seizure test; assay type: in vivo, mouse; conditions: mice i.p.; for scPTZ screening: number of mice protected / number of mice tested / protection in the scPTZ test: 100 mg/kg, 0.5 h; for ED50: Mus musculus, ip, 95% confidence interval in parentheses
[4] = system: mice; experiment: Maximal electroshock seizure (MES) test; assay type: in vivo, mouse; conditions: mice i.p.; for ED50: Mus musculus, ip, 95% confidence interval in parentheses; for MES screening: number of mice protected / number of mice tested / protection in the MES test: 100 mg/kg, 0.5 h
[5] = system: mice; design: method as in PMID 28934547; conditions: active only in a very high dose; cited from earlier work
[6] = system: mice; design: method as in PMID 32929733; conditions: mice i.p.; cited from earlier work
[7] = system: mice; conditions: mice i.p.; cited from earlier work
[8] = system: mice; conditions: mice i.p.; cited from earlier work; remark: listed apart in the source
[9] = system: mice; conditions: mice i.p.; cited from earlier work; remark: listed apart in the source
[10] = system: mice; conditions: mice i.p., cited from earlier work
[11] = system: Cav1.2 channel (dihydropyridine site, antagonist radioligand); experiment: Radioligand binding, Cav1.2 channel (dihydropyridine site); conditions: rat cerebral cortex
[12] = molecular target: T1, TRPV1 (VR1) (h) (Homo sapiens, UniProt Q8NER1); experiment: TRPV1 (VR1) functional assay, antagonist effect; assay type: cell-based; conditions: HEK293, human recombinant HEK-293 cells, read-out: % Inhibition of Control Agonist Response, TRPV1 (VR1) (h) (antagonist effect)
T1 construct: Cerep Laboratories / Eurofins Panlabs (contract assay)

[13] = molecular target: Cav1.2 (h) calcium ion channel (Homo sapiens, UniProt Q13936); experiment: Cav1.2 calcium ion channel cell based antagonist calcium flux assay; conditions: HEK293, read-out: % Inhibition of Control Agonist Response, Cav1.2 (h) calcium ion channel cell based antagonist calcium flux assay
[14] = system: TTX-sensitive Na+ channel; experiment: Radioligand binding, TTX-sensitive Na+ channel; conditions: rat cerebral cortex
[15] = system: fast voltage-gated sodium currents in rat prefrontal cortex pyramidal neurons; design: method as in PMID 33647745; conditions: 1 µM; p < 0.01, n = 5; cited from earlier work

T1 sequence (Q8NER1 whole entry): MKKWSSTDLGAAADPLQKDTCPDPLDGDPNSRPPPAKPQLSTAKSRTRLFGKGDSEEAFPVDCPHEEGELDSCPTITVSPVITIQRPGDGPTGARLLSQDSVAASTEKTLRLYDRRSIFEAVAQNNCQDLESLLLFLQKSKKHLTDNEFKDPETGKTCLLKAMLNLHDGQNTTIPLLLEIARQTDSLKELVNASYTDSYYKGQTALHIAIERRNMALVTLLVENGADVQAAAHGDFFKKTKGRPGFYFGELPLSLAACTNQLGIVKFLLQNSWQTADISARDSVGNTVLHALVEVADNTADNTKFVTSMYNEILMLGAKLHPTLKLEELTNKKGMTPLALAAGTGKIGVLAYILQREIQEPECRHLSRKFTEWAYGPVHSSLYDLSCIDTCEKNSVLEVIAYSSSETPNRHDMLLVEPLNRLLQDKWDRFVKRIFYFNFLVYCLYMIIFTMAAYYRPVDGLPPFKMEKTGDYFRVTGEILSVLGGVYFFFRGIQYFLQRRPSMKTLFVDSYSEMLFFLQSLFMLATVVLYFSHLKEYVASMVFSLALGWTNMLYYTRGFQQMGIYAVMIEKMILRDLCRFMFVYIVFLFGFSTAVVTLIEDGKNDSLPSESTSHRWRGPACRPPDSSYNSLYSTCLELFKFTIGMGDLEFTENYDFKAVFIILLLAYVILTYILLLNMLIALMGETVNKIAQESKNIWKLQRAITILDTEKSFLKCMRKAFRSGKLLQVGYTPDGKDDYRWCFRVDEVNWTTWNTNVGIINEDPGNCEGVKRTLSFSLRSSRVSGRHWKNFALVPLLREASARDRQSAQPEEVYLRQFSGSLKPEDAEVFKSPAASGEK
Cav1.2 (h) calcium ion channel, sequence (Q13936 whole entry): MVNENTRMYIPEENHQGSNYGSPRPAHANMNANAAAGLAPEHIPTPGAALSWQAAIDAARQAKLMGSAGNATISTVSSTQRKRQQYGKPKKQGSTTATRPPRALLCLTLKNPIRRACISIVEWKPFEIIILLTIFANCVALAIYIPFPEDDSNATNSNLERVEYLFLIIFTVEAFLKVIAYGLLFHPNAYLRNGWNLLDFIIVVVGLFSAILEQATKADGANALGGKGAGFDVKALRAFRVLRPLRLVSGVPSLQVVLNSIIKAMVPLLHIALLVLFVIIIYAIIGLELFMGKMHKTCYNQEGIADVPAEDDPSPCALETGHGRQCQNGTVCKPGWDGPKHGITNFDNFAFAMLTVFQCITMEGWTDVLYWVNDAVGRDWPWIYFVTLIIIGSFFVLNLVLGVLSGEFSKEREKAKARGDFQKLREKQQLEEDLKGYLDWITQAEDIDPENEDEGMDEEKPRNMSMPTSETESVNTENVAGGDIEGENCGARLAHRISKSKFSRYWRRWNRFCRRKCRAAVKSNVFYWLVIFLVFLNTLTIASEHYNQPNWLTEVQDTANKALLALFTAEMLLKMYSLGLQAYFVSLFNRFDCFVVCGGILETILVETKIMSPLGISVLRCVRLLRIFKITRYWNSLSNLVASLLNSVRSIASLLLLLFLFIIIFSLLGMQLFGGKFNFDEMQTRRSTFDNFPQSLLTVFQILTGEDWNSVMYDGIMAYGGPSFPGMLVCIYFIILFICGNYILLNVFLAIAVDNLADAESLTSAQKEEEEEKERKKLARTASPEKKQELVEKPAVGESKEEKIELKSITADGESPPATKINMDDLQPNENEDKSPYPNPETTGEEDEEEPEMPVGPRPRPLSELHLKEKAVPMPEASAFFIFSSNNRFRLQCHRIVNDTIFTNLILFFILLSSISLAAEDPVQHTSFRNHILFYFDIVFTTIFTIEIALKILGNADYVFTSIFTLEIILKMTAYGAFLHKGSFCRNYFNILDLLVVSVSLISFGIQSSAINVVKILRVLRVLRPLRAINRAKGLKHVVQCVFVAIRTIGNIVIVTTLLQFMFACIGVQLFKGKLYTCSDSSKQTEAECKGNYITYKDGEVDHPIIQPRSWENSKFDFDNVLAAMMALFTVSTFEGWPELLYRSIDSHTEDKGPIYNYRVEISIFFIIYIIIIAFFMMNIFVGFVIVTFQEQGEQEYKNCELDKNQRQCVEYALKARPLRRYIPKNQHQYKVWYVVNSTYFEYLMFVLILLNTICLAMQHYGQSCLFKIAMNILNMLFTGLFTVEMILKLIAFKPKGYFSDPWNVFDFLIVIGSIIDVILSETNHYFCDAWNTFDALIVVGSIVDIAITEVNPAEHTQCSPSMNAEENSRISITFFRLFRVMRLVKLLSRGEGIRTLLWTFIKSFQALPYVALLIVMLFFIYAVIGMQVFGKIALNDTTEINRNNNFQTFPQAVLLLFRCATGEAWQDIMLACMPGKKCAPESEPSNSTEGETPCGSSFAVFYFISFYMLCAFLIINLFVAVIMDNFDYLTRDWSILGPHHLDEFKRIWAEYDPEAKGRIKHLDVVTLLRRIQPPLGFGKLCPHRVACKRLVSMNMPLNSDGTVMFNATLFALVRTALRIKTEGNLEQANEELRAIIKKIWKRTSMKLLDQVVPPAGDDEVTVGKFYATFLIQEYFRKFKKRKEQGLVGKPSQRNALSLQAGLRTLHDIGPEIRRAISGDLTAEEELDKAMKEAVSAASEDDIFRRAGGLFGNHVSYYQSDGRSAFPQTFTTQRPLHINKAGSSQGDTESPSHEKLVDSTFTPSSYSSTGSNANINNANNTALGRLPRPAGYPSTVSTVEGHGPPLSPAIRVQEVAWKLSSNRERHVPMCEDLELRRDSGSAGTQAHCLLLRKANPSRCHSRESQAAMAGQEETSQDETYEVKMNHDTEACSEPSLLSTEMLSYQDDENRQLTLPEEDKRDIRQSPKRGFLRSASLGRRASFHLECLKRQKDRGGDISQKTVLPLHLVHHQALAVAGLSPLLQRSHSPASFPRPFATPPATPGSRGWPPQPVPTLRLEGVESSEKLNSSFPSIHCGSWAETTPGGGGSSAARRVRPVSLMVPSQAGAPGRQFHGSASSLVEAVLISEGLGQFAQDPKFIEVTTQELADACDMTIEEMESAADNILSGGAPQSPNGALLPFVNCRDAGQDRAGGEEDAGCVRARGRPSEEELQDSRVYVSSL
Cav1.2 (h) calcium ion channel, sequence (Q08289 whole entry partner): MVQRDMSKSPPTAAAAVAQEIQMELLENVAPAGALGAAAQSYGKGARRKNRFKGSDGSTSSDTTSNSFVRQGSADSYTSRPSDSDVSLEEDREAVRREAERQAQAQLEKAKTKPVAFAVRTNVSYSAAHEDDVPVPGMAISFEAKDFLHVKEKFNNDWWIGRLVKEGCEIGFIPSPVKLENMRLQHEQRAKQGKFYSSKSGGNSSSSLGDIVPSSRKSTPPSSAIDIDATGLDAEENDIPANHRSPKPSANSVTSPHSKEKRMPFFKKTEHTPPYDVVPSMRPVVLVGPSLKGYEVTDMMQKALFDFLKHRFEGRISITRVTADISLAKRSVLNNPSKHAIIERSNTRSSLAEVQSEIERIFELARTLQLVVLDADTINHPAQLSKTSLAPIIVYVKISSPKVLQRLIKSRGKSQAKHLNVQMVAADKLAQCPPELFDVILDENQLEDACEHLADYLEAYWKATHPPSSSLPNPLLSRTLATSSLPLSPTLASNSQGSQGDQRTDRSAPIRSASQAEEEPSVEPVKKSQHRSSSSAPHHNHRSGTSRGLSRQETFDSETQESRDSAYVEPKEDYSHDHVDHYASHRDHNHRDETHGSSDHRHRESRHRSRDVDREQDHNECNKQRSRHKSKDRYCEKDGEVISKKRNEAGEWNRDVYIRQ
Cav1.2 (h) calcium ion channel, sequence (P54289 25-956 partner limits assumed): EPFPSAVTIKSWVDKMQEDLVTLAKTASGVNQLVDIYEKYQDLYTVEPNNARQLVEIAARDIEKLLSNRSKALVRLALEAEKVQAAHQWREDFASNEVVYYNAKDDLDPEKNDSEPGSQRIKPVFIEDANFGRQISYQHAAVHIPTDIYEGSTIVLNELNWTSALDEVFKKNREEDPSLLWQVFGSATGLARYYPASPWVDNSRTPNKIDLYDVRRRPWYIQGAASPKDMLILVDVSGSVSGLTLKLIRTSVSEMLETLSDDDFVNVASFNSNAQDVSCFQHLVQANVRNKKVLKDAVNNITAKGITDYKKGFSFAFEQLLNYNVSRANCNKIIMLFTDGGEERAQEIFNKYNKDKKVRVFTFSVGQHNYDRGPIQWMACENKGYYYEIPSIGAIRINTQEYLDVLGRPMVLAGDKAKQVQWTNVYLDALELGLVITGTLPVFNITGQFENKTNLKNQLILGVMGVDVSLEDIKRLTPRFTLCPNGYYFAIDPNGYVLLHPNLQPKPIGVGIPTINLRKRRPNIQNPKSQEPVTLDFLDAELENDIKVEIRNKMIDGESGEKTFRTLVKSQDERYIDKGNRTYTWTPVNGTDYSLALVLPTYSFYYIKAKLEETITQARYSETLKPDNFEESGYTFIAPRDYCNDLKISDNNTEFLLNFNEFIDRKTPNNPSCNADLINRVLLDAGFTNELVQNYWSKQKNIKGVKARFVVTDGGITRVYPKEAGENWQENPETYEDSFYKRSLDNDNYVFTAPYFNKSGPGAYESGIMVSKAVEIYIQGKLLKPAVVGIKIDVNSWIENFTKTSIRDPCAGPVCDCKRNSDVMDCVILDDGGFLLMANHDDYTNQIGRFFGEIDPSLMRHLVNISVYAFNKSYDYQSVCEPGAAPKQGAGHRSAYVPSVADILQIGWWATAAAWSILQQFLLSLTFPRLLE
Cav1.2 (h) calcium ion channel, sequence (P54289 957-1103 partner limits assumed): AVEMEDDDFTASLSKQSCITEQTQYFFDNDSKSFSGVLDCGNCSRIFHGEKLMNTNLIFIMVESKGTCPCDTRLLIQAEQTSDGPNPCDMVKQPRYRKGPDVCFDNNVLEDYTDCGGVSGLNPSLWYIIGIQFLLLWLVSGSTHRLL

## CCN(CC)C1CC(=O)N(C(C(=O)N2CCN(c3cccc(C(F)(F)F)c3)CC2)c2ccccc2)C1=O.Cl (stereo not drawn) [Compound 15, 3-(Diethylamino)-1-(2-oxo-1-phenyl-2-(4-(3-(trifluoromethyl)phenyl)piperazin-1-yl)ethyl)pyrrolidine-2,5-dione hydrochloride]
[1]
  TD50: 247 mg/kg
[2]
  ED50: 80.4 mg/kg
  6 Hz (32 mA) screening: number of mice protected / number of mice tested: 3/4
  protection in the 6 Hz (32 mA) test: 75%
[3]
  scPTZ screening: number of mice protected / number of mice tested: 1/4
[4]
  ED50: 77.5 mg/kg
  MES screening: number of mice protected / number of mice tested: 4/4
  protection in the MES test: 100%
other
  melting point: 142.2 to 143.1 °C

## CCCC(CCC)C(=O)O [VPA, valproic acid, reference compound]
[3]
  ED50: 239 mg/kg
[5]
  dose active in the capsaicin test: 200 mg/kg

## O=C(C(c1ccccc1)N1C(=O)CCC1=O)N1CCN(c2cccc(C(F)(F)F)c2)CC1 (stereo not drawn) [I]
[6]
  ED50 6 Hz (44 mA): 73.2 (57.4–93.4) mg/kg
[7]
  ED50 6 Hz (32 mA): 22.4 (17.4–28.8) mg/kg
[8]
  ED50 MES: 23.7 (18.4–31.2) mg/kg
[9]
  ED50 scPTZ: 59.4 (37.5–94.1) mg/kg
[10]; Table 2
  TD50 (rotarod test): 195.7 (132.7–288.6) mg/kg
[10]
  TD50 (rotarod test): 195.7 (132.7–288.6) mg/kg

## CN(C)C1CC(=O)N([C@@H](C(=O)N2CCN(c3cccc(OC(F)(F)F)c3)CC2)c2ccccc2)C1=O.Cl (stereo partly drawn) [(C1-R)-32, 3-Dimethylamino-1-((R)-2-oxo-1-phenyl-2-(4-(3-(trifluoromethoxy)phenyl)piperazin-1-yl)ethyl)pyrrolidine-2,5-dione hydrochloride]
[11]; 10 µM
  % Inhibition of Control-Specific Binding, Cav1.2 channel (dihydropyridine site, antagonist radioligand): 18.6%
[11]; 50 µM
  % Inhibition of Control-Specific Binding, Cav1.2 channel (dihydropyridine site, antagonist radioligand): 88.9%
[1]
  TD50: 72 mg/kg
[2]
  ED50: 28.3 mg/kg
  6 Hz (32 mA) screening: number of mice protected / number of mice tested: 3/4
  protection in the 6 Hz (32 mA) test: 75%
[12]; 10 µM
  inhibition at 10 µM: 8.5%
[12]; 50 µM
  inhibition at 50 µM: 44.6%
[3]
  ED50: 44.9 mg/kg
  protection in the scPTZ test: 75%
  scPTZ screening: number of mice protected / number of mice tested: 3/4
[4]
  ED50: 26.3 mg/kg
  MES screening: number of mice protected / number of mice tested: 4/4
  protection in the MES test: 100%
other
  melting point: 164.8 to 165.7 °C
[13]
  inhibition at 10 µM: 38%
[14]; 10 µM
  % Inhibition of Control-Specific Binding, TTX-sensitive Na+ channel: 33.4%
[14]; 50 µM
  % Inhibition of Control-Specific Binding, TTX-sensitive Na+ channel: 101.9%

## CN(C)C1CC(=O)N(C(C(=O)N2CCN(c3cccc(OC(F)(F)F)c3)CC2)c2ccccc2)C1=O.Cl (stereo not drawn) [Compound 17, 3-Dimethylamino-1-(2-oxo-1-phenyl-2-(4-(3-(trifluoromethoxy)phenyl)piperazin-1-yl)ethyl)pyrrolidine-2,5-dione hydrochloride]
[1]
  TD50: 69.7 mg/kg
[2]
  ED50: 28.2 mg/kg
  6 Hz (32 mA) screening: number of mice protected / number of mice tested: 2/4
  protection in the 6 Hz (32 mA) test: 50%
[3]
  ED50: 31.3 mg/kg
  protection in the scPTZ test: 75%
  scPTZ screening: number of mice protected / number of mice tested: 3/4
[4]
  ED50: 33.3 mg/kg
  MES screening: number of mice protected / number of mice tested: 3/4
  protection in the MES test: at least 75%
other
  melting point: 152.3 to 153.5 °C

## Cl.O=C(C(c1ccccc1)N1C(=O)CC(N2CCOCC2)C1=O)N1CCN(c2cccc(C(F)(F)F)c2)CC1 (stereo not drawn) [Compound 16, 3-Morpholino-1-(2-oxo-1-phenyl-2-(4-(3-(trifluoromethyl)phenyl)piperazin-1-yl)ethyl)pyrrolidine-2,5-dione hydrochloride]
[2]
  6 Hz (32 mA) screening: number of mice protected / number of mice tested: 0/4
[3]
  scPTZ screening: number of mice protected / number of mice tested: 1/4
[4]
  MES screening: number of mice protected / number of mice tested: 0/4
other
  melting point: 146.2 to 147.5 °C

## CC[C@@H](C(N)=O)N1CCCC1=O [LEV, levetiracetam, reference compound]
[1]
  TD50: > 500 mg/kg
[6]
  ED50 6 Hz (44 mA): >500 mg/kg
[4]
  ED50: > 500 mg/kg
[10]; Table 2
  TD50 (rotarod test): >500 mg/kg

## CN(C)C1CC(=O)N([C@H](C(=O)N2CCN(c3cccc(C(F)(F)F)c3)CC2)c2ccccc2)C1=O.Cl (stereo partly drawn) [(C1-S)-31, 3-Dimethylamino-1-((S)-oxo-1-phenyl-2-(4-(3-(trifluoromethyl)phenyl)-piperazin-1-yl)ethyl)pyrrolidine-2,5-dione hydrochloride]
[1]
  TD50: 188 mg/kg
[2]
  ED50: > 130 mg/kg
  6 Hz (32 mA) screening: number of mice protected / number of mice tested: 2/4
[3]
  scPTZ screening: number of mice protected / number of mice tested: 1/4
[4]
  MES screening: number of mice protected / number of mice tested: 1/4
other
  melting point: 169.2 to 170.8 °C

## CN(C)C1CC(=O)N([C@@H](C(=O)N2CCN(c3cccc(SC(F)(F)F)c3)CC2)c2ccccc2)C1=O.Cl (stereo partly drawn) [(C1-R)-33, 3-Dimethylamino-1-((R)-2-oxo-1-phenyl-2-(4-(3-((trifluoromethyl)thio)phenyl)piperazin-1-yl)ethyl)pyrrolidine-2,5-dione hydrochloride]
[2]
  6 Hz (32 mA) screening: number of mice protected / number of mice tested: 1/4
[3]
  scPTZ screening: number of mice protected / number of mice tested: 1/4
[4]
  MES screening: number of mice protected / number of mice tested: 1/4
other
  melting point: 173.2 to 174.7 °C

## COC[C@@H](NC(C)=O)C(=O)NCc1ccccc1 [LCS, lacosamide]
[6]
  ED50 6 Hz (44 mA): 6.9 (5.4–8.6) mg/kg

## O=C([C@@H](c1ccccc1)N1C(=O)CCC1=O)N1CCN(c2cccc(C(F)(F)F)c2)CC1 [II]
[7]
  ED50 6 Hz (32 mA): 39.2 (31.6–48.6) mg/kg
[8]
  ED50 MES: 36.0 (31.4–41.2) mg/kg
[9]
  ED50 scPTZ: 54.8 (43.5–69.1) mg/kg
[15]
  maximal sodium current amplitude normalized to control (1.0): 0.75 ± 0.04

## CCC1(C)CC(=O)NC1=O (stereo not drawn) [ETX, ethosuximide, reference compound]
[2]
  ED50: > 200 mg/kg
[3]
  ED50: 140 mg/kg

## CN(C)C1CC(=O)N([C@@H](C(=O)N2CCN(c3cccc(C(F)(F)F)c3)CC2)c2ccccc2)C1=O.Cl (stereo partly drawn) [(C1-R)-31, 3-Dimethylamino-1-((R)-oxo-1-phenyl-2-(4-(3-(trifluoromethyl)phenyl)-piperazin-1-yl)ethyl)pyrrolidine-2,5-dione hydrochloride]
[1]
  TD50: 94.9 mg/kg
[2]
  ED50: 50.9 mg/kg
  6 Hz (32 mA) screening: number of mice protected / number of mice tested: 3/4
  protection in the 6 Hz (32 mA) test: 75%
[3]
  ED50: 65.5 mg/kg
  protection in the scPTZ test: 75%
  scPTZ screening: number of mice protected / number of mice tested: 3/4
[4]
  ED50: 57.7 mg/kg
  MES screening: number of mice protected / number of mice tested: 4/4
  protection in the MES test: 100%
other
  melting point: 169.8 to 170.6 °C

## CN(C)C1CC(=O)N(C(C(=O)N2CCN(c3cccc(SC(F)(F)F)c3)CC2)c2ccccc2)C1=O.Cl (stereo not drawn) [Compound 18, 3-Dimethylamino-1-(2-oxo-1-phenyl-2-(4-(3-((trifluoromethyl)thio)phenyl)piperazin-1-yl)ethyl)pyrrolidine-2,5-dione hydrochloride]
[2]
  6 Hz (32 mA) screening: number of mice protected / number of mice tested: 1/4
[3]
  scPTZ screening: number of mice protected / number of mice tested: 1/4
[4]
  MES screening: number of mice protected / number of mice tested: 1/4
other
  melting point: 170.1 to 171.5 °C

## CNC1CC(=O)N(C(C(=O)N2CCN(c3cccc(C(F)(F)F)c3)CC2)c2ccccc2)C1=O.Cl (stereo not drawn) [Compound 13, 3-(Methylamino)-1-(2-oxo-1-phenyl-2-(4-(3-(trifluoromethyl)phenyl)piperazin-1-yl)ethyl)pyrrolidine-2,5-dione hydrochloride]
[2]
  ED50: 93.6 mg/kg
  6 Hz (32 mA) screening: number of mice protected / number of mice tested: 2/4
  protection in the 6 Hz (32 mA) test: 50%
[3]
  ED50: 85.6 mg/kg
  scPTZ screening: number of mice protected / number of mice tested: 2/4
[4]
  MES screening: number of mice protected / number of mice tested: 1/4
other
  melting point: 161.2 to 163.4 °C
